Experimental data as given in BindingDB's records for patent US11248013 (Rakovina Therapeutics, 2022).

Biological target: Poly [ADP-ribose] polymerase 1 (Homo sapiens, UniProt P09874)
Test: Enzyme Assay
Experimental: Inhibition of PARP-1 enzymatic activities was measured using an HT Universal Colorimetric PARP Assay Kit (Trevigen, catalogue #4677-096-K) following the standard procedures. Serial dilutions of PARP compounds were added to appropriate wells. The compound was incubated with PARP enzyme at RT for 10 min, and the reaction was initiated by addition of the PARP substrate cocktail, Each concentration of compound was tested in triplicate wells. After 15 min reaction, the reaction was stopped, and the Strep-HRP was added into each well and incubated for 1 h at RT. After addition of TACS-Sapphire colorimetric substrate and incubated in dark for 15 min, the OD450 was read out with an EnVision instrument. IC50 values (the concentration at which 50% of the enzyme activity is inhibited) were calculated, which are determined over a range of different concentrations, normally from 10 uM to 0.1 nM.

Poly [ADP-ribose] polymerase 1, sequence (P09874 whole entry): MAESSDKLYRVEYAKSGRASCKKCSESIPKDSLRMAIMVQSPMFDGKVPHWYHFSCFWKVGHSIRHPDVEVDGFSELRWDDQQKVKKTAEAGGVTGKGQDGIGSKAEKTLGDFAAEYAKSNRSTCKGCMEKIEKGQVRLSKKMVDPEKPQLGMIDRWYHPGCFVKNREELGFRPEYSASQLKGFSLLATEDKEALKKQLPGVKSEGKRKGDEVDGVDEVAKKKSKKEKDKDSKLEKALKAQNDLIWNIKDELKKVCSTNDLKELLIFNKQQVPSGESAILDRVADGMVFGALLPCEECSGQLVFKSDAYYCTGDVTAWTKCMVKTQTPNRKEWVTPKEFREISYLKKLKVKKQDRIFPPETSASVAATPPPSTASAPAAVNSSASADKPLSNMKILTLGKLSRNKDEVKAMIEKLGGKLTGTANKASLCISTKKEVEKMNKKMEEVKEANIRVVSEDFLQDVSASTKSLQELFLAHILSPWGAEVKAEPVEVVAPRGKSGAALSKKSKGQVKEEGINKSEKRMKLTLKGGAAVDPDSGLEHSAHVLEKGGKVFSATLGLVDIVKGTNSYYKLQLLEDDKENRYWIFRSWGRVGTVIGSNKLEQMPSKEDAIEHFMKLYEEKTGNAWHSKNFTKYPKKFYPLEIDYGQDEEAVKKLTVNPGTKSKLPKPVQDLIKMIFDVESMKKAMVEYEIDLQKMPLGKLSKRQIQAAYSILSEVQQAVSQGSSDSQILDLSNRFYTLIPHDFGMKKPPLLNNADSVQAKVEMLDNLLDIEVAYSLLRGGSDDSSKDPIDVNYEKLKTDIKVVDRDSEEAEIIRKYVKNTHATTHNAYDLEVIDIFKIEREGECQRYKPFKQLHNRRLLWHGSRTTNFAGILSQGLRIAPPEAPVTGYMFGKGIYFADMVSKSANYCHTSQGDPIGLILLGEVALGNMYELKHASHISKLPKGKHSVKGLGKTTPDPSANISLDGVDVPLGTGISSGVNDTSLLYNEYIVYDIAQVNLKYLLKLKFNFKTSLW

CC(C)(C)C(=O)N1CCP(=O)(c2cc(Cc3n[nH]c(=O)c4ccccc34)ccc2F)CC1 [US11248013, Example 10]
IC50: in the range around 550 nM
